Experimental data as given in US20240308996A1, “PYRIDOPYRIDINES AND DERIVATIVES THEREOF AS SELECTIVE KINASE INHIBITORS” (University of Sharjah, priority 2023, published 2024).

Tests used:
NCI-H522 = assay: NCI-60 cell line panel: NCI-H522; assay type: cell-based; set-up: TGI: unit not given here; conditions: Non-Small Cell Lung Cancer; for IC50: Homo sapiens; for TGI: total growth inhibition
Description: (§1) It was carried out at the NCI, Bethesda, MD, USA, utilizing their standard protocol.

HCT-15 = assay: NCI-60 cell line panel: HCT-15; assay type: cell-based; conditions: Colon Cancer; for TGI: total growth inhibition; for IC50: Homo sapiens
Description: as §1

EKVX = assay: NCI-60 cell line panel: EKVX; assay type: cell-based; conditions: Non-Small Cell Lung Cancer; for IC50: Homo sapiens; for TGI: total growth inhibition, in µM (unit assumed)
Description: as §1

Flt4 = Flt4 (Homo sapiens, UniProt P35916); assay: Kinase IC50, Flt4
Chain of Flt4 (P35916 25-1363): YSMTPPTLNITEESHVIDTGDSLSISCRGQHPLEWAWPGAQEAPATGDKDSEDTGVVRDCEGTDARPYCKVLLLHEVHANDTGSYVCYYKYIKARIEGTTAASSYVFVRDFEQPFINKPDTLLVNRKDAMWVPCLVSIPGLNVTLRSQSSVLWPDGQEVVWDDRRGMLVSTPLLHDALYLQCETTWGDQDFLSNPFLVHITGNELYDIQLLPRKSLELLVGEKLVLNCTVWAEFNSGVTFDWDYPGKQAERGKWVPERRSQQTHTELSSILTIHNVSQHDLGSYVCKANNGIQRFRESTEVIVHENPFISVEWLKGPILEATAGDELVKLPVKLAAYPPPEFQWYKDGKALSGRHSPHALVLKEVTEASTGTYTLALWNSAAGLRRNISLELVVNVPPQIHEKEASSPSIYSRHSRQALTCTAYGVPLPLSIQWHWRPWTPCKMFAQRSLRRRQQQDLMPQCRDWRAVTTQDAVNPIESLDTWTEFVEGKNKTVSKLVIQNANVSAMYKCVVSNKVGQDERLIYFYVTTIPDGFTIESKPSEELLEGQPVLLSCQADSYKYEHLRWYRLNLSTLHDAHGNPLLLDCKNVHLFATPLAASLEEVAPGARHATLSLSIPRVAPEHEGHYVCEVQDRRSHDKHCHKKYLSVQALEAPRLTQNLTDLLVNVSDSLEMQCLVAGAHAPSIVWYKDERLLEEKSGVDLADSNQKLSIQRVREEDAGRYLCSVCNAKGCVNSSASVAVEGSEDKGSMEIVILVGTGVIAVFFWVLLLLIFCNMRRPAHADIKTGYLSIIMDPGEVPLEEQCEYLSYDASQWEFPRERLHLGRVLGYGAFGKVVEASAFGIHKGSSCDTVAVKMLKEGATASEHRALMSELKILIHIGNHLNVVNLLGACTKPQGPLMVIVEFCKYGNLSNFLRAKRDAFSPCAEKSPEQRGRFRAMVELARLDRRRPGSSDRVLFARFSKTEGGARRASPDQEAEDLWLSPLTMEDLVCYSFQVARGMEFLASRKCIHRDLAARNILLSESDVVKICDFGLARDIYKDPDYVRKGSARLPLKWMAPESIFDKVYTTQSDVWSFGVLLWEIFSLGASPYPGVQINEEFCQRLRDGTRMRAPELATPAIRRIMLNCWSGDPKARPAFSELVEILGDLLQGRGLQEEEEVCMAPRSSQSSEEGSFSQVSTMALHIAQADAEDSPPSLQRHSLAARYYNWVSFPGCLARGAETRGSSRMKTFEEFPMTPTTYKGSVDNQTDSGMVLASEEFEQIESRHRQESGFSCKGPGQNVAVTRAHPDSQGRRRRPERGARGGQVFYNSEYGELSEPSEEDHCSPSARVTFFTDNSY

Flt3 = Flt3 (Homo sapiens, UniProt P36888); assay: Kinase IC50, Flt3
Chain of Flt3 (P36888 27-993): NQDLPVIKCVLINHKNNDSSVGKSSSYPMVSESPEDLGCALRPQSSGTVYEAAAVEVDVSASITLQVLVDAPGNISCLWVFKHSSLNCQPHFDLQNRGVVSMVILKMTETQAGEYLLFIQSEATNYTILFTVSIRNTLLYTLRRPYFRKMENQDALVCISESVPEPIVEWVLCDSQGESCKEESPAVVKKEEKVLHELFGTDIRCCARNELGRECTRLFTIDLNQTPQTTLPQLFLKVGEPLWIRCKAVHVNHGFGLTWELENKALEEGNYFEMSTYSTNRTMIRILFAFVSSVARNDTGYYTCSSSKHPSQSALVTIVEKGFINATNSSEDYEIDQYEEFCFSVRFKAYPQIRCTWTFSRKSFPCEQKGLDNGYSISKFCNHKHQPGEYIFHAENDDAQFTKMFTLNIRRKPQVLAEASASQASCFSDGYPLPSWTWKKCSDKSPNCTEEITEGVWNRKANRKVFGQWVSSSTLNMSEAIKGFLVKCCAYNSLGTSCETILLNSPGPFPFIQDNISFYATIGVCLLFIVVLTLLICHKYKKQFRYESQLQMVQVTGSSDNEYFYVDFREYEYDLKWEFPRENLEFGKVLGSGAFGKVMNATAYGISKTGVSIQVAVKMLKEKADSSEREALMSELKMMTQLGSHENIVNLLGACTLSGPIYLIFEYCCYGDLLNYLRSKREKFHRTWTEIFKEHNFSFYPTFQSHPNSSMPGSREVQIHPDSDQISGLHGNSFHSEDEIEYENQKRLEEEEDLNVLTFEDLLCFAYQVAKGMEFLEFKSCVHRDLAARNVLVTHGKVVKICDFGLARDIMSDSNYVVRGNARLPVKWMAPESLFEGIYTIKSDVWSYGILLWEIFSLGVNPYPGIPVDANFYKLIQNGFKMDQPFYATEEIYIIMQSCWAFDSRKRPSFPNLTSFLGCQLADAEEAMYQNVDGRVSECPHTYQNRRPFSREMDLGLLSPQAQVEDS

TrkA = TrkA (Homo sapiens, UniProt P04629); assay: Kinase IC50, TrkA
Chain of TrkA (P04629 33-796): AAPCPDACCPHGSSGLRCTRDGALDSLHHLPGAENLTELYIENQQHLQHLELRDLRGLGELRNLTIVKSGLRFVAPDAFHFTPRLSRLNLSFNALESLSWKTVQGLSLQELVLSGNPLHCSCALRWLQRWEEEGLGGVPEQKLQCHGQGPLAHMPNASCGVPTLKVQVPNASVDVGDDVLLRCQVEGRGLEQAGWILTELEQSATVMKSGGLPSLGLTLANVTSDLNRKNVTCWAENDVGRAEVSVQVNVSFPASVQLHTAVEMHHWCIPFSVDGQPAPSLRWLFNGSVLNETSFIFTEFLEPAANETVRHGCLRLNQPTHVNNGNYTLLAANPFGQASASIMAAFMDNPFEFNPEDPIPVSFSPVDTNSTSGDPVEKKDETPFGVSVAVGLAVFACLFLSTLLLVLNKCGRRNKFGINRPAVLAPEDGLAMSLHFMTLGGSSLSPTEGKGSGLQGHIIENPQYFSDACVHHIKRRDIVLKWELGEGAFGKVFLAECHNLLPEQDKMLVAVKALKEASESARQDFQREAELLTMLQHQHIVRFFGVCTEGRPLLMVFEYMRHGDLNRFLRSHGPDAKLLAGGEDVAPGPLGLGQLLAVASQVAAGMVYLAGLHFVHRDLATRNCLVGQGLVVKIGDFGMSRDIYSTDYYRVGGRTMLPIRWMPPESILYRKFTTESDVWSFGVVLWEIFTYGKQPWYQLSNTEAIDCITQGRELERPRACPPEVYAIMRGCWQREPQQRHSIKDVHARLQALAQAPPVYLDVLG

FMS = FMS (Homo sapiens, UniProt P07333); assay: Kinase IC50, FMS
Chain of FMS (P07333 20-972): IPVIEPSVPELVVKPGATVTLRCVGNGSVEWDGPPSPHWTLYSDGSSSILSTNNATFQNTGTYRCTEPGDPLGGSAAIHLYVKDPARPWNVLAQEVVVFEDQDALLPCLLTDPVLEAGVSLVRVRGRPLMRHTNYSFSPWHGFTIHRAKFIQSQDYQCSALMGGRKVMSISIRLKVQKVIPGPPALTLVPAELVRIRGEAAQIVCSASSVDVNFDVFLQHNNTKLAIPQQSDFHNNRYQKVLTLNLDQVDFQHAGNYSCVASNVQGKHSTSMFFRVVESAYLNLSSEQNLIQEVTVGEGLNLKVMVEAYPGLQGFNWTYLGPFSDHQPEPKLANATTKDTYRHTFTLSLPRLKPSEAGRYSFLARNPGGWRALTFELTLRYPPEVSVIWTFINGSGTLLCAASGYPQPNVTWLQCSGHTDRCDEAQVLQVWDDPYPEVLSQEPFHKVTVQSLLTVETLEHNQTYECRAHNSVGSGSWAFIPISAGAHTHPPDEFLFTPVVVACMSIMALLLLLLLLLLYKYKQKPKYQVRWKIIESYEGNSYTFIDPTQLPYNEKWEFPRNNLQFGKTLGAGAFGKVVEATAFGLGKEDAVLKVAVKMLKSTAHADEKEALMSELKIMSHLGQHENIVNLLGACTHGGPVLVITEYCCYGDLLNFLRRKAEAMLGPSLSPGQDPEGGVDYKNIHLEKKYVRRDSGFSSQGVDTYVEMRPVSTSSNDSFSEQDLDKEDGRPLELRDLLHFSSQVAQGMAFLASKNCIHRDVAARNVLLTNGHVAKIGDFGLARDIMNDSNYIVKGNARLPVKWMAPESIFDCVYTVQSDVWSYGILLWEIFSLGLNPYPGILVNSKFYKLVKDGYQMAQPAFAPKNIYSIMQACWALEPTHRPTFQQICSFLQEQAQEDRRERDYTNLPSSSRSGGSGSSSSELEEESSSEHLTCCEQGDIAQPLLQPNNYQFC

PDGFRα = PDGFRα (Homo sapiens, UniProt P16234); assay: Kinase IC50, PDGFRα
Chain of PDGFRα (P16234 24-1089): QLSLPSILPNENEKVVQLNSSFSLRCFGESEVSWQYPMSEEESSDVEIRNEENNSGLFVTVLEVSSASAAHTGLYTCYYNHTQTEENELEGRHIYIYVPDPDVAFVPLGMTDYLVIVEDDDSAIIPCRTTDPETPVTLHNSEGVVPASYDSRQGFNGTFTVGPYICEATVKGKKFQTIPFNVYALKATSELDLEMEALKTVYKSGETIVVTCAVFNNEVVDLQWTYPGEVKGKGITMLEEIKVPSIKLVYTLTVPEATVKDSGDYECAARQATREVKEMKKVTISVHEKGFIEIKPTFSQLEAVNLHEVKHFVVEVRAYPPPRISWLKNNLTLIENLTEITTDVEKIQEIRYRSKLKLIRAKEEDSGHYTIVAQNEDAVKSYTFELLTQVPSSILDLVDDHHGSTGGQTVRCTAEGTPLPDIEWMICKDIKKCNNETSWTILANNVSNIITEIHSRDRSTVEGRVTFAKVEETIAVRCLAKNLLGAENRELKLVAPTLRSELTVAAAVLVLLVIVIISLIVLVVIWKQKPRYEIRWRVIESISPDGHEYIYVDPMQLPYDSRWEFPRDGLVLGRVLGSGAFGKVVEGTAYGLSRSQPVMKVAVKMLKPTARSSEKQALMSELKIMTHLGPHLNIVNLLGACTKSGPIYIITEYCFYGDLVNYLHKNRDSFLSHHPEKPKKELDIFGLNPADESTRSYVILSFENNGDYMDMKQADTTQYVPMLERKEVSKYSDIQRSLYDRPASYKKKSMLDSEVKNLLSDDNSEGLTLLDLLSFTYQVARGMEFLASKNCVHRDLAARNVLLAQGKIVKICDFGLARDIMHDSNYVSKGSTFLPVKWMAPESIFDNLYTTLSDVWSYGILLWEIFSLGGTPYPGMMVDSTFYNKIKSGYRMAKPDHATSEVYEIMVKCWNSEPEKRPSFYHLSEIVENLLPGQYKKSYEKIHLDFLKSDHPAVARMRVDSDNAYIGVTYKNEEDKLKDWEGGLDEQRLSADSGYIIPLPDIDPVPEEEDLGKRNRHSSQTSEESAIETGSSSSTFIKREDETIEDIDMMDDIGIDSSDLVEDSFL

| Structure (SMILES) | IC50 (NCI-H522) [nM] | TGI (NCI-H522) | TGI (HCT-15) [nM] | IC50 (HCT-15) [nM] | IC50 (EKVX) [nM] | TGI (EKVX) | IC50 (Flt4) [nM] | IC50 (Flt3) [nM] | IC50 (TrkA) [nM] | IC50 (FMS) [nM] | potency against FMS kinase compared with sorafenib (FMS) | IC50 (PDGFRα) [nM] | potency and selectivity against FMS kinase (IC50 values) (FMS; against the most sensitive kinases) |
| --- | --- | --- | --- | --- | --- | --- | --- | --- | --- | --- | --- | --- | --- |
| CC(C)NC(=O)c1cc(-c2ccc(NC(=O)Nc3ccc(N4CCN(C)CC4)c(C(F)(F)F)c3)cc2)nc2cccnc12 [Compound 13e, N-Isopropyl-2-(4-(3-(4-(4-methylpiperazin-1-yl)-3-(trifluoromethyl)phenyl)ureido)phenyl)-1,5-naphthyridine-4-carboxamide] | 670 | 1.37 | 1410 | 700 | 770 | 1.49 |  |  |  |  |  |  |  |
| CCN1CCN(c2ccc(NC(=O)Nc3ccc(-c4cc(C(=O)NC)c5ncccc5n4)cc3)cc2C(F)(F)F)CC1 [Compound 13c, 2-(4-(3-(4-(4-Ethylpiperazin-1-yl)-3-(trifluoromethyl)phenyl)ureido)phenyl)-N-methyl-1,5-naphthyridine-4-carboxamide] | 3230 | 6.40 | 700 | 330 | 2940 |  | 945.1 ± 0.5 | 483.6 ± 0.7 | 958 | 73.9 ± 0.2 | more potent than the known drug sorafenib | 992.3 ± 0.6 |  |
| CCN1CCN(c2ccc(NC(=O)Nc3ccc(-c4cc(C(=O)NC(C)C)c5ncccc5n4)cc3)cc2C(F)(F)F)CC1 [Compound 13f, 2-(4-(3-(4-(4-Ethylpiperazin-1-yl)-3-(trifluoromethyl)phenyl)ureido)phenyl)-N-isopropyl-1,5-naphthyridine-4-carboxamide] | 3520 | 8.43 | 1350 | 670 | 1610 | 5.82 |  |  |  |  |  |  |  |
| CNC(=O)c1cc(-c2ccc(NC(=O)Nc3ccc(N4CCN(C)CC4)c(C(F)(F)F)c3)cc2)nc2cccnc12 [Compound 13b, N-Methyl-2-(4-(3-(4-(4-methylpiperazin-1-yl)-3-(trifluoromethyl)phenyl)ureido)phenyl)-1,5-naphthyridine-4-carboxamide] | 16500 | 31.1 | 4330 | 2070 | 17900 | 33.9 | 366.3 ± 0.5 | 362 ± 0.4 |  | 21.5 ± 0.2 | more potent than the known drug sorafenib | 972.4 ± 1.3 | high potency and selectivity against FMS kinase |
